Data on 14 compounds can be found in PubChem BioAssay (NCI).

Among the test systems are SK-OV-3 ovarian; U251 CNS; OVCAR-5 ovarian; NCI-H23 lung; HOP-92 NSCLC; ACHN renal; OVCAR-8 ovarian; SF-295 CNS; MALME-3M melanoma.
Common to all, as to test: NCI tumour cell line growth inhibition, 48 h

Where “and” joins values, the source holds several entries; their conditions need not be identical. Equal entries are not always repeated.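 Briefly, cells in 96-well plates were exposed to five compound concentrations for 48 h, and endpoints were estimated by linear interpolation. GI50 is the concentration that inhibits growth by half. TGI: total growth inhibition.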 Bounds are passed on as bounds.

`CCOC(=O)c1oc2c(OC)ccc3c2c1CCC3`: the TGI in the assay on SK-OV-3 ovarian, in the assay on U251 CNS, in the assay with OVCAR-5 ovarian, in the assay with NCI-H23 lung, in the assay on HOP-92 NSCLC and with ACHN renal was over 100 µM each time. Further, the TGI with OVCAR-8 ovarian, with SF-295 CNS and in the assay on MALME-3M melanoma was over 100 µM throughout.
For the compound `O=C(CCC(=O)Nc1ccccc1C(F)(F)F)N/N=C1\C(=N\NC(=O)CCC(=O)Nc2ccccc2C(F)(F)F)C(c2ccc3c(c2)OCO3)Oc2ccccc21` (centres undefined), the TGI in the assay with SK-OV-3 ovarian is over 82.5 µM; in the assay with U251 CNS, 68.5 µM; in the assay with OVCAR-5 ovarian it was over 100 µM; in the assay on NCI-H23 lung it was over 100 µM; in the assay with HOP-92 NSCLC it was over 87.1 µM; in the assay with ACHN renal, over 100 µM. Besides, the TGI with OVCAR-8 ovarian, in the assay with SF-295 CNS and in the assay on MALME-3M melanoma was over 100 µM throughout.
Regarding `CC(=O)NNc1nc(C)c(C(=O)NNC(=O)C(=O)Nc2ccc(Cl)c([N+](=O)[O-])c2)s1`, the TGI in the assay with SK-OV-3 ovarian, with U251 CNS, with OVCAR-5 ovarian, in the assay with NCI-H23 lung, in the assay on HOP-92 NSCLC and in the assay with ACHN renal was over 100 µM in each case. Moreover, the TGI in the assay with OVCAR-8 ovarian, in the assay on SF-295 CNS and in the assay with MALME-3M melanoma was over 100 µM in each case.
In the case of `C/C(NNC(=O)c1ccccc1O)=C1\C=Nc2ccccc2S1`, the TGI in the assay with SK-OV-3 ovarian, in the assay on U251 CNS, in the assay on OVCAR-5 ovarian, with NCI-H23 lung, in the assay with ACHN renal and in the assay on OVCAR-8 ovarian was over 100 µM throughout. Moreover, the results for the TGI in the assay on SF-295 CNS and with MALME-3M melanoma were over 100 µM and 27.6 µM, respectively.
Take `Cc1ccc2nc(NC(=O)C(=O)C(C(=O)c3ccc4ccccc4c3)C3OC(=O)c4ccccc43)sc2c1` (centres undefined): the TGI with SK-OV-3 ovarian was over 100 µM; in the assay on U251 CNS, 15.5 µM; in the assay on OVCAR-5 ovarian, 23.9 µM; in the assay on NCI-H23 lung, 18.3 µM; in the assay with HOP-92 NSCLC, 15.2 µM; in the assay on ACHN renal, 46.1 µM. The TGI in the assay with OVCAR-8 ovarian worked out at 62.1 µM; in the assay on SF-295 CNS it was 21 µM; with MALME-3M melanoma, 22.9 µM.
Consider `O=C1c2c(O)cccc2C(C(=O)CCCCCC(=O)C2c3cccc(O)c3C(=O)c3c(O)cccc32)c2cccc(O)c21`, for which the GI50 is 6.3 µM with SK-OV-3 ovarian; 2.5 µM with U251 CNS; 6.96 µM in the assay on OVCAR-5 ovarian; 3.94 µM in the assay on NCI-H23 lung; 9.48 µM with ACHN renal; 6.8 µM in the assay on OVCAR-8 ovarian. The GI50 with SF-295 CNS was 1.48 µM; in the assay with MALME-3M melanoma it was 8.38 µM. Further, the TGI in the assay on SK-OV-3 ovarian is 4.15 µM and 13.8 µM; in the assay with U251 CNS, 3.11 µM and 8.21 µM; in the assay on OVCAR-5 ovarian, 7.43 µM and 14.4 µM; with NCI-H23 lung, 1.88 µM and 12.9 µM; in the assay on HOP-92 NSCLC, 16.8 µM; in the assay with ACHN renal it was 5.71 µM and 16.6 µM. Further, the TGI with OVCAR-8 ovarian was 8.5 µM and 15.6 µM; in the assay with SF-295 CNS, 25 µM and 3.74 µM; with MALME-3M melanoma, 5.87 µM and 15.3 µM.
Turning to `NCCOc1ccc(/C(=C(/Cl)c2ccccc2)c2ccccc2)cc1`, the TGI with SK-OV-3 ovarian was determined as 31.7 µM; with U251 CNS it was 23.7 µM; with OVCAR-5 ovarian it was 30.8 µM; in the assay with NCI-H23 lung, 30.7 µM; with HOP-92 NSCLC, 16.8 µM; in the assay with ACHN renal, 27.2 µM. Also, the TGI with OVCAR-8 ovarian worked out at 29.6 µM; with SF-295 CNS, 28.9 µM; with MALME-3M melanoma, 24.3 µM.
On to `CC(Oc1cc2oc(=O)cc(-c3ccccc3)c2cc1Cl)C(=O)O` (centres undefined), for which the TGI in the assay on SK-OV-3 ovarian, with U251 CNS, with NCI-H23 lung, in the assay with HOP-92 NSCLC, with ACHN renal and in the assay on OVCAR-8 ovarian was over 100 µM in each case. Moreover, the TGI in the assay on SF-295 CNS and in the assay on MALME-3M melanoma was over 100 µM in each case.
In the case of `O=C(CCc1nc(=S)[nH][nH]1)Nc1cc(Cl)ccc1Cl`, the TGI with SK-OV-3 ovarian, with U251 CNS, in the assay on OVCAR-5 ovarian, in the assay with NCI-H23 lung, in the assay on HOP-92 NSCLC and with ACHN renal was over 100 µM throughout. Besides, the TGI in the assay on OVCAR-8 ovarian, in the assay on SF-295 CNS and in the assay with MALME-3M melanoma was over 100 µM in each case.
Turning to `C#CCN(N=O)C(=O)NC(CCCCNC(=O)OCc1ccccc1)C(=O)OCc1ccccc1` (centres undefined), the TGI in the assay on SK-OV-3 ovarian is over 100 µM; in the assay with U251 CNS, 76.8 µM; with OVCAR-5 ovarian, 84 µM; in the assay on NCI-H23 lung it was over 100 µM; with HOP-92 NSCLC, 32.6 µM; with ACHN renal, over 100 µM. Further, the values for the TGI in the assay with OVCAR-8 ovarian, with SF-295 CNS and in the assay on MALME-3M melanoma were 38.9 µM, over 100 µM and 65.1 µM, respectively.
With `COC(=O)C(C(=O)C(=O)Nc1ccc(C)cc1)c1nc2ccc([N+](=O)[O-])cc2[nH]c1=O` (centres undefined), the TGI with SK-OV-3 ovarian, in the assay with U251 CNS, in the assay on OVCAR-5 ovarian, with NCI-H23 lung, with ACHN renal and in the assay with OVCAR-8 ovarian was over 100 µM each time. The TGI in the assay on SF-295 CNS and in the assay on MALME-3M melanoma was over 100 µM each time.
`CCCCC(C(=O)C(=O)Nc1ccc(C)cc1C)C(=O)C(C)C` (centres undefined): the TGI in the assay on U251 CNS, in the assay on OVCAR-5 ovarian, with NCI-H23 lung, with HOP-92 NSCLC, in the assay on ACHN renal and in the assay with OVCAR-8 ovarian was over 100 µM in each case. Moreover, the TGI in the assay with SF-295 CNS and in the assay with MALME-3M melanoma was over 100 µM in each case.
Consider `O=C1OC(CC(=O)c2ccc(F)cc2)C(Cl)=C1Cl` (centres undefined), for which the TGI in the assay with SK-OV-3 ovarian is over 100 µM; with U251 CNS, 34.3 µM; in the assay with OVCAR-5 ovarian it was 44.9 µM; with NCI-H23 lung, 93.5 µM; in the assay with HOP-92 NSCLC, 34.7 µM; with ACHN renal it was over 100 µM. Also, the values for the TGI in the assay on OVCAR-8 ovarian, in the assay on SF-295 CNS and with MALME-3M melanoma were 40.2 µM, over 100 µM and 33.8 µM, respectively.
On to `NC(Cc1ccccc1)C(=O)OCN1C(=O)C2C3C=CC(C2C1=O)C1C2C(=O)N(COC(=O)C(N)Cc4ccccc4)C(=O)C2C31` (centres undefined), for which the TGI in the assay on SK-OV-3 ovarian is > 100 µM and 78.9 µM; with U251 CNS, 39.1 µM and 34.6 µM; in the assay on OVCAR-5 ovarian, over 100 µM; in the assay with NCI-H23 lung, 38.1 µM and 42.7 µM; in the assay with HOP-92 NSCLC it was 95.4 µM and > 100 µM; with ACHN renal, 59.2 µM and 71.3 µM. The TGI is 54.1 µM and 43.7 µM in the assay on OVCAR-8 ovarian; over 100 µM in the assay with SF-295 CNS.
